# Source: patent publication US20050234113A1, “Antioxidant and radical scavenging activity of synthetic analogs of desferrithiocin” (University of Florida Research Foundation, Inc., priority 2002, published 2005)
# Several values for one entry are separate records, joined by “and”; a condition that tells them apart may be missing. Equal values may be shown once. Entries after “also recorded” stand apart in the source; their conditions may differ.
# Experiments:
# [1] = Prevention of iron-mediated oxidation of ascorbate (ascorbate-mediated reduction of Fe(III)); details: ascorbate 100 μM, FeCl3 30 μM, pH 7.4, ligand/Fe ratios 0-3, 40 min
# Method: (§1) The iron chelators were tested for their ability to diminish the iron-mediated oxidation of ascorbate by the method of Dean and Nicholson (Free Radical Res. 20, 83-101 (1994)). Briefly, a solution of freshly prepared ascorbate (100 μM) in sodium phosphate buffer (5 mM, pH 7.4) was incubated in the presence of FeCl3 (30 μM) and chelator (ligand/Fe ratios varied from 0-3) for 40 min. The A265 was read at 10 and 40 min; the ΔA265 in the presence of ligand was compared to that in its absence.
# The role of chelators in either inhibition or promotion of the Fenton reaction is related to their capacity to prevent Fe(III) from being reduced to Fe(II). Fe(II) is required for the reduction of H2O2 to HO. and HO^−. The assay involves spectrophotometrically monitoring the disappearance of ascorbate at pH 7.4 in the presence of FeCl3 and chelator at several ligand/Fe ratios. Under these conditions, ascorbate is oxidized to an L-ascorbyl radical anion. This anion then disproportionates to dehydroascorbic acid and ascorbate.
# as §1, with “chelators nitrilotriacetic acid (NTA), 1,2-dimethyl-3-hydroxypyridin-4-one (L1), desferrioxamine B (DFO), (S)-4′-(HO)-DADMDFT, and (S,S)-1,11-Bis[5-(4-carboxyl-4,5-dihydro-1,3-thiazol-2-yl)-2,4-dihydroxyphenyl]-4,8-dioxaundecane (BDU)” for “chelators”, “Nicholson, Free” for “Nicholson (Free”, “20:” for “20,”, “(1994).” for “(1994)).”
# The measurement examines the disappearance of ascorbate. It is known that DFO, a hydroxamate chelator that forms a 1:1 complex with Fe(III) at a formation constant of approximately 10^31 M^−1, prevents ascorbate-mediated reduction of Fe(III); it serves as a positive control in the present study. Both NTA and L1 promote ascorbate-mediated reduction of Fe(III) and serve as negative controls.
# [2] = Quenching of the ABTS radical cation
# Method: The iron chelators were tested for their ability to quench the radical cation formed from 2,2′-azinobis(3-ethylbenzothiazoline-6-sulfonic acid) (ABTS) by the method of Re et al. in Free Radic. Biol. Med. 26, 1231-1237 (1999). Briefly, a stock solution of ABTS radical cation was generated by mixing ABTS (10 mM, 2.10 mL) with K2S2O8 (8.17 mM, 0.90 mL) in H2O and […] deep blue-green ABTS radical cation was diluted in sufficient sodium phosphate (10 mM, pH 7.4) to give an A734 of about 0.900. Test compounds were added to a final concentration ranging from 1.25 to 15 μM, and the decrease in A734 was read after 1, 2, 4 and 6 min. The reaction was largely complete by 1 min, but the data presented are based on a 6-min reaction time.
# In this assay, a fairly stable radical cation, ABTS^+, was examined, and Trolox, an analog of vitamin E, was used as a positive control. Briefly, the procedure involved generating the blue-green chromophore by the reaction of ABTS with K2S2O8. The radical has absorption maxima at λ=415, 645, 734, and 815 nm. The change in absorbance at 734 nm was noted 6 min after addition of the chelator of interest at various concentrations, and the slope of the ΔA734 vs. ligand concentration line was calculated.
# The iron chelators were tested for their ability to quench the radical cation formed from 2,2′-azinobis(3-ethylbenzothiazoline-6-sulfonic acid) (ABTS) by a published method (Re, R., et al., Free Radical Biol. Med. 26:1231-1237 (1999). Briefly, a stock solution of ABTS radical cation was generated by mixing ABTS (10 mM, 2.10 mL) with K2S2O8 (8.17 mM, 0.90 mL) in H2O and allowing the solution to sit in the dark at room temperature for 18 hours. This stock solution of deep blue-green ABTS radical cation was diluted in sufficient sodium phosphate (10 mM, pH 7.4) to give an A734 of about 0.900. Test compounds were added to a final concentration ranging from 1.25 to 15 μM, and the decrease in A734 was read after 1, 2, 4 and 6 min. The reaction was largely complete by 1 min, but the data presented are based on a 6-min. reaction time.
# This radical cation decolorization assay utilizes the pre-formed radical monocation of 2,2′-azinobis(3-ethylbenzothiazoline-6-sulfonic acid) (ABTS) and has been used to evaluate the antioxidant capacity of a large number of compounds and mixtures. Briefly, the change in absorbance of the blue-green chromophore was recorded after the addition of the chelator of interest at each of the different concentrations, and the slope of the ΔA734 vs. ligand concentration line was calculated. The positive control for this reaction was Trolox, an analogue of vitamin E. The decrease in A734 as a function of ligand concentration is the comparitor among the five compounds evaluated. Trolox, L1, DFO, (S)-4′-(HO)-DADMDFT and BDU (Table 3). All four of the iron chelators performed better than Trolox; DFO≈BDU>(S)-4′-(HO)-DADMDFT>L1>Trolox. Thus, all of these ligands could be expected to serve as excellent radical scavengers.
# iron [3] = experiment: Iron clearance in the non iron-overloaded, bile duct-cannulated rodent model; format: in vivo, Sprague-Dawley rats
# Method: Briefly, male Sprague-Dawley rats averaging 450 g were housed in Nalgene plastic metabolic cages during the experimental period and given free access to water. The animals were anesthetized using sodium pentobarbital (55 mg/kg) administered intraperitoneally. The bile duct was cannulated using 22-gauge polyethylene tubing. The cannula was inserted into the duct about 1 cm from the duodenum and tied snugly in place. After threading through the shoulder, the cannula was passed from the rat to the swivel inside a metal torque-transmitting tether, which was attached to a rodent jacket around the animal's chest. The cannula was directed from the rat to a Gilson microfraction collector (Middleton, Wis.) by a fluid swivel mounted above the metabolic cage. Bile samples were collected at 3 hour intervals for 24 hours. The urine sample was taken at 24 hours and handling was as previously described. (Bergeron, R. J., et al., J. Med. Chem. 34:2072-2078 (1991).
# (§2) The iron chelators were solubilized in 40% Cremophor RH-40/water (v/v) and given orally and subcutaneously to the rats at the doses shown in Table 4. In the primates, DFO was dissolved in sterile H2O at a concentration of 50 or 100 mg/mL and given orally or subcutaneously at a volume of 1 ml/kg. The desferrithiocin analogues were solubilized in 40% Cremophor RH-40/water (v/v) and given orally to the monkeys at the doses shown in Table 4. However, the desferrithiocin analogues were administered subcutaneously as either a suspension in distilled H2O or as their sodium salts in solution as indicated in Table 4.
# (§3) Iron clearance studies were carried out both in the non iron-overloaded, bile duct-cannulated rodent model and in the iron-overloaded Cebus apella monkey, and the results are reported as iron clearing efficiency (Table 4). This number is generated by dividing the net iron clearance [total iron excretion (bile or stool plus urine) minus background] by the theoretical iron clearance and multiplying by 100. The theoretical iron clearance is based on a 2:1 metal complex stoichiometry for 4′-(HO)-DADMDFT, a 1:1 stoichiometry for DFO, and a 1:1 stoichiometry for BDU, as shown in the Job's plot (FIG. 5). Data are presented as the mean±the standard error of the mean. The drugs were administered both orally (po) and subcutaneously (sc) to the rodents and primates; the positive control was DFO.
# iron [4] = experiment: Iron clearance in the iron-overloaded Cebus apella monkey; format: in vivo; details: as sodium salt
# Method: The monkeys were iron overloaded with intravenous iron dextran to provide about 500 mg iron per kg body weight. The serum transferrin iron saturation rose to between 70 and 80%. At least twenty half-lives, sixty days, elapsed before any of the animals were used in experiments evaluating iron-chelating agents.
# Fecal and urine samples were collected at 24 hour intervals and processed. Briefly, the collections began 4 days prior to the administration of the test drug and continued for an additional 5 days after the drug was given. Iron concentrations were determined by flame atomic absorption spectroscopy.
# as §2, §3
# [5] = Table 1, A734, six-minute reaction, pH 7.4, 1.25 to 15 μM
smiles,measurement,setting,value
"COCCOCCOCCN(O)C(C)=O [decyl hydroxamate, N-hydroxy,N-(3,6,9-trioxadecyl)acetamide]",effect on ascorbate-mediated reduction of Fe(III) (in words),[1],increased the rate of iron(III) reduction
"O=C(O)CN(CC(=O)O)CC(=O)O [NTA, nitrilotriacetic acid]",effect on ascorbate-mediated reduction of Fe(III) (in words),[1],profoundly stimulatory effect; also recorded: promoted ascorbate-mediated reduction of Fe(III)
same,effect on ascorbate-mediated reduction of Fe(III) (in words),[1]; listed as nitrilotriacetic acid,increased the rate of iron(III) reduction
C[C@]1(C(=O)O)CSC(c2ccccc2O)=N1 [DADFT],Slope × 10^3 OD units/μM (ABTS radical cation quenching),[2]; [5],−25.1 × 10^3 OD units/μM
"Nc1ccc(O)c(C(=O)O)c1 [Compound 5-ASA, 5-aminosalicylic acid]",effect on ascorbate-mediated reduction of Fe(III) (in words),[1],promoted ascorbate-mediated reduction of Fe(III)
same,effect on ascorbate-mediated reduction of Fe(III) (in words),[1]; listed as 5-aminosalicylic acid,increased the rate of iron(III) reduction
same,Slope × 10^3 OD units/μM (ABTS radical cation quenching),[2]; [5],−34.4 × 10^3 OD units/μM
"O=C(O)C1CSC(c2ccccc2O)=N1 (stereo not drawn) [DADMDFT, desazadesmethyldesferrithiocin]",Slope × 10^3 OD units/μM (ABTS radical cation quenching),[2]; [5],−28.1 × 10^3 OD units/μM
"O=C(O)[C@H]1CSC(c2cc(CCCOCCCOCCCc3cc(C4=N[C@@H](C(=O)O)CS4)c(O)cc3O)c(O)cc2O)=N1 [BDU, (S,S)-1,11-Bis[5-(4-carboxyl-4,5-dihydro-1,3-thiazol-2-yl)-2,4-dihydroxyphenyl]-4,8-dioxaundecane]",effect on ascorbate-mediated reduction of Fe(III) (in words),[1],significant protection
same,Slope × 10^3 OD units/μM (ABTS radical cation quenching),"[2]; Table 3, A734, 6-min reaction, values marked b are the inventors' unpublished results",−136 × 10^3 OD units/μM
same,"% bile (of iron excreted), rodents",iron [3]; 150 μmol/kg po,80%
same,"% urine (of iron excreted), rodents",iron [3]; 150 μmol/kg po,20%
same,efficiency in rodents (%),iron [3]; 150 μmol/kg po,0.9±0.4%
same,"% bile (of iron excreted), rodents",iron [3]; 150 μmol/kg sc,95%
same,"% urine (of iron excreted), rodents",iron [3]; 150 μmol/kg sc,5%
same,efficiency in rodents (%),iron [3]; 150 μmol/kg sc,6.5±2.0%
same,"% stool (of iron excreted), monkeys",iron [4]; 75 μmol/kg sc,98%
same,"% urine (of iron excreted), monkeys",iron [4]; 75 μmol/kg sc,2%
same,efficiency in monkeys (%),iron [4]; 75 μmol/kg sc,3.2±1.8% and 3.2 ± 1.8^g %
same,"% urine (of iron excreted), monkeys","iron [4]; 150 μmol/kg sc, n = 3",0%
same,efficiency in monkeys (%),"iron [4]; 150 μmol/kg sc, n = 3","2.1±1.4% and 2.1 ± 1.4^g,h %"
